The record followed here is EPA's ToxValDB 9.5 (doi:10.2903/j.efsa.2015.3999).

Values joined by “and” are separate entries in the source; they are usually repeats but may differ in a detail not shown here. Equal entries are not always repeated.

One data set concerns Anas platyrhynchos. To be noted: reproductive.
The test system of the next data set is Apis mellifera. To be noted: acute, mortality.
Another data set concerns Canidae. To be noted: subchronic; duration: 90 days; oral; Dog Other; organ weight.
Another data set deals with Daphnia magna. To be noted: chronic/long-term; duration: 21 days; reproduction.
The next data set concerns Folsomia candida. To be noted: chronic/long-term.
In the next data set the test system is Rattus norvegicus. To be noted: for LD50: acute, mortality.

For `COCC(=O)N(c1c(C)cccc1C)[C@H](C)C(=O)OC` [Metalaxyl-M], the NOEL in the data set on Anas platyrhynchos turned out to be 117 mg/kg-day; with Colinus virginianus (reproduction developmental), 8.4 mg/kg-day. Further, the LD50 in the data set with Apis mellifera (dermal) is more than 100 µg/piece; in the data set on Apis mellifera (oral, unspecified), more than 97.3 µg/piece; with Colinus virginianus (acute, oral, mortality), 1420 mg/kg-day and 981 mg/kg-day and 1180 mg/kg-day; in the data set with Rattus norvegicus (F), 375 mg/kg-day; in the data set on Rattus norvegicus (M) it was 953 mg/kg-day. The no observed adverse effect level (NOAEL) in the data set with Canidae is 8 mg/kg-day; in the data set with Rattus norvegicus (reproduction developmental, body weight), 50 mg/kg-day. The LC50 in the data set on Colinus virginianus (acute, oral, diet, mortality) was more than 5620 mg/kg; with Oncorhynchus mykiss (acute, duration: 96 hours, mortality), more than 100 µg/mL; in the data set with Tagia sp. (acute, duration: 14 days, mortality) it was 830 mg/kg. The NOEC amounted to 25 mg/L in the data set with Daphnia magna; 125 mg/kg in the data set on Folsomia candida; 50 mg/L with Oncorhynchus mykiss (chronic/long-term, duration: 28 days, growth); 35.6 mg/kg in the data set on Tagia sp. (chronic/long-term, duration: 8 weeks).
